Laboratory results reported in patent US20100173958A1, “COMPOUNDS FOR THE INHIBITION OF DGAT1 ACTIVITY” (priority 2006, published 2010).

Target: T1, human DGAT1 (Homo sapiens, UniProt O75907)
T1 construct: made in house; host or cells: Sf9 insect cells (recombinant baculovirus); membrane fraction used
T1 sequence (O75907 1-488): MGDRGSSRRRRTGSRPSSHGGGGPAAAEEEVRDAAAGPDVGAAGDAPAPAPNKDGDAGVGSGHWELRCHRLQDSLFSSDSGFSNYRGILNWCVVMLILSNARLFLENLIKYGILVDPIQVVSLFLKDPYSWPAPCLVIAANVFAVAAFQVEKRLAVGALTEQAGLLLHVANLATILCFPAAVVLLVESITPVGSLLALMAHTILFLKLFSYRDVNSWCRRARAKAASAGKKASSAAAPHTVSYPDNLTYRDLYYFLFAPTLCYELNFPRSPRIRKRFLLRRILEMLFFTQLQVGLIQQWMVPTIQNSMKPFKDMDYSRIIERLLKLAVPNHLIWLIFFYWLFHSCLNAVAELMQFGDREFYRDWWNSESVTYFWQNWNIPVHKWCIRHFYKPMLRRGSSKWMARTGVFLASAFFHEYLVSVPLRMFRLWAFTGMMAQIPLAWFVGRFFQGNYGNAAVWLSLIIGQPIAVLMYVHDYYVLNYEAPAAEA
Experiment: Human Enzyme Assay (DGAT1 inhibition)
Format: biochemical
Conditions: human DGAT1 expressed in insect cell (sf9) membranes; 14C oleoyl coenzyme A, 30 minutes at room temperature
Description: The in vitro assay to identify DGAT1 inhibitors uses human DGAT1 expressed in insect cell membranes as the enzyme source (Proc. Natl. Acad. Sci. 1998, 95, 13018-13023). Briefly, sf9 cells were infected with recombinant baculovirus containing human DGAT1 coding sequences and harvested after 48 h. Cells were lysed by sonication and membranes isolated by centrifuging at 28000 rpm for 1 h at 4° C. on a 41% sucrose gradient. The membrane fraction at the interphase was collected, washed, and stored in liquid nitrogen.
DGAT1 activity was assayed by a modification of the method described by Coleman (Methods in Enzymology 1992, 209, 98-102). Compound at 1-10 μM was incubated with 0.4 μg membrane protein, 5 mM MgCl2, and 100 μM 1,2 dioleoyl-sn-glycerol in a total assay volume of 200 μl in plastic tubes. The reaction was started by adding ^14C oleoyl coenzyme A (30 μM final concentration) and incubated at room temperature for 30 minutes. The reaction was stopped by adding 1.5 mL 2-propanol:heptane:water (80:20:2). Radioactive triolein product was separated into the organic phase by adding 1 mL heptane and 0.5 mL 0.1 M carbonate buffer pH 9.5. DGAT1 activity was quantified by counting aliquots of the upper heptane layer by liquid scintillography.

IC50: 290 nM
Structure (SMILES): O=C(Nc1ccc(S(=O)(=O)C2CCC(C(=O)O)CC2)cc1)c1nnc(Nc2cc(F)c(F)c(F)c2)o1 (mixture of isomers) [Example 1, 4-[4-[[5-[(3,4,5-Trifluorophenyl)amino]1,3,4-oxadiazole-2-carbonyl]amino]phenyl]sulfonylcyclohexane-1-carboxylic acid]
